Test results from PubChem BioAssay (NCI).
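Method: 48-hour compound exposure of cells in 96-well plates, five concentrations, linear interpolation of endpoints. TGI is the concentration that stops growth completely.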

Columns and labels:
Assay in all cases: growth of human tumour cells (NCI), 48 h
[1] = tested on: A498 renal
[2] = tested on: ACHN renal
[3] = tested on: CAKI-1 renal
[4] = tested on: CCRF-CEM leukemia
[5] = tested on: DMS 114 small cell lung
[6] = tested on: DMS 273 small cell lung
[7] = tested on: EKVX NSCLC
[8] = tested on: HCT-15 colon
[9] = tested on: HL-60(TB) leukemia
[10] = tested on: HOP-18 NSCLC
[11] = tested on: HOP-92 NSCLC
[12] = tested on: HT29 colon
[13] = tested on: IGROV1 ovarian
[14] = tested on: K-562 leukemia
[15] = tested on: KM20L2 colon
[16] = tested on: LOX IMVI melanoma
[17] = tested on: LXFL 529 NSCLC
[18] = tested on: M14 melanoma
[19] = tested on: M19-MEL melanoma
[20] = tested on: MALME-3M melanoma
[21] = tested on: MOLT-4 leukemia
[22] = tested on: NCI-H226 lung
[23] = tested on: NCI-H23 lung
[24] = tested on: NCI-H460 lung
[25] = tested on: NCI-H522 lung
[26] = tested on: OVCAR-3 ovarian
[27] = tested on: OVCAR-8 ovarian
[28] = tested on: RPMI-8226 leukemia
[29] = tested on: RXF-631 renal
[30] = tested on: SF-268 CNS
[31] = tested on: SF-295 CNS
[32] = tested on: SF-539 CNS
[33] = tested on: SK-MEL-2 melanoma
[34] = tested on: SK-MEL-28 melanoma
[35] = tested on: SK-MEL-5 melanoma
[36] = tested on: SK-OV-3 ovarian
[37] = tested on: SN12C renal
[38] = tested on: SNB-19 CNS
[39] = tested on: SNB-75 CNS
[40] = tested on: SNB-78 CNS
[41] = tested on: SW-620 colon
[42] = tested on: TK-10 renal
[43] = tested on: U251 CNS
[44] = tested on: UACC-62 melanoma
[45] = tested on: UO-31 renal
[46] = tested on: XF 498 CNS
[47] = tested on: 786-0 renal
[48] = tested on: A549 NSCLC
[49] = tested on: COLO 205 colon
[50] = tested on: HCC-2998 colon
[51] = tested on: HCT-116 colon
[52] = tested on: HOP-62 NSCLC
[53] = tested on: KM12 colon
[54] = tested on: OVCAR-4 ovarian
[55] = tested on: OVCAR-5 ovarian
[56] = tested on: RXF 393 renal
[57] = tested on: UACC-257 melanoma
[58] = tested on: SR leukemia

Structure (SMILES): COc1ccc(C2SCc3nc4ccccc4n32)cc1 (configuration not stated)
- TGI [1]: 65.8 µM
- TGI [2]: > 100 µM
- TGI [3]: > 100 µM
- TGI [4]: > 100 µM
- TGI [5]: 8.07 µM
- TGI [6]: 53.6 µM
- TGI [7]: > 100 µM
- TGI [8]: > 100 µM
- TGI [9]: 5.43 µM
- TGI [10]: > 100 µM
- TGI [11]: 8.75 µM
- TGI [12]: 7.02 µM
- TGI [13]: > 100 µM
- TGI [14]: > 100 µM
- TGI [15]: 6.25 µM
- TGI [16]: > 100 µM
- TGI [17]: > 100 µM
- TGI [18]: > 100 µM
- TGI [19]: > 100 µM
- TGI [20]: > 100 µM
- TGI [21]: 45.5 µM
- TGI [22]: > 100 µM
- TGI [23]: > 100 µM
- TGI [24]: > 100 µM
- TGI [25]: 5.42 µM
- TGI [26]: > 100 µM
- TGI [27]: > 100 µM
- TGI [28]: 13.7 µM
- TGI [29]: > 100 µM
- TGI [30]: > 100 µM
- TGI [31]: > 100 µM
- TGI [32]: > 100 µM
- TGI [33]: > 100 µM
- TGI [34]: > 100 µM
- TGI [35]: 14.9 µM
- TGI [36]: > 100 µM
- TGI [37]: > 100 µM
- TGI [38]: > 100 µM
- TGI [39]: 4.54 µM
- TGI [40]: > 100 µM
- TGI [41]: > 100 µM
- TGI [42]: > 100 µM
- TGI [43]: 85.4 µM
- TGI [44]: > 100 µM
- TGI [45]: 66.5 µM
- TGI [46]: 4.13 µM

Structure (SMILES): CN(C)CCn1cnc2sc3ccccc3c21
- TGI [47]: > 100 µM
- TGI [1]: > 100 µM
- TGI [48]: > 100 µM
- TGI [2]: > 100 µM
- TGI [3]: > 100 µM
- TGI [4]: > 100 µM
- TGI [49]: > 100 µM
- TGI [5]: > 100 µM
- TGI [7]: > 100 µM
- TGI [50]: > 100 µM
- TGI [51]: > 100 µM
- TGI [8]: > 100 µM
- TGI [10]: > 100 µM
- TGI [52]: > 100 µM
- TGI [12]: > 100 µM
- TGI [13]: > 100 µM
- TGI [14]: > 100 µM
- TGI [53]: > 100 µM
- TGI [15]: > 100 µM
- TGI [16]: > 100 µM
- TGI [17]: > 100 µM
- TGI [18]: > 100 µM
- TGI [19]: > 100 µM
- TGI [20]: > 100 µM
- TGI [21]: > 100 µM
- TGI [22]: > 100 µM
- TGI [23]: > 100 µM
- TGI [24]: > 100 µM
- TGI [25]: > 100 µM
- TGI [26]: > 100 µM
- TGI [54]: > 100 µM
- TGI [55]: > 100 µM
- TGI [27]: > 100 µM
- TGI [56]: > 100 µM
- TGI [29]: > 100 µM
- TGI [30]: > 100 µM
- TGI [31]: > 100 µM
- TGI [32]: > 100 µM
- TGI [33]: > 100 µM
- TGI [34]: > 100 µM
- TGI [35]: > 100 µM
- TGI [36]: > 100 µM
- TGI [37]: > 100 µM
- TGI [38]: > 100 µM
- TGI [39]: 86.6 µM
- TGI [40]: > 100 µM
- TGI [41]: > 100 µM
- TGI [42]: > 100 µM
- TGI [43]: > 100 µM
- TGI [57]: > 100 µM
- TGI [44]: > 100 µM
- TGI [46]: > 100 µM

Structure (SMILES): COc1cc2c(cc1OC)C(C#N)(Cc1ccccc1)N(C(=O)c1ccccc1)C=C2 (configuration not stated)
- TGI [47]: > 100 µM
- TGI [2]: > 100 µM
- TGI [4]: > 100 µM
- TGI [49]: > 100 µM
- TGI [5]: 53.2 µM
- TGI [6]: > 100 µM
- TGI [7]: > 100 µM
- TGI [50]: > 100 µM
- TGI [51]: > 100 µM
- TGI [8]: > 100 µM
- TGI [9]: > 100 µM
- TGI [10]: > 100 µM
- TGI [52]: > 100 µM
- TGI [11]: > 100 µM
- TGI [12]: > 100 µM
- TGI [13]: > 100 µM
- TGI [14]: > 100 µM
- TGI [53]: > 100 µM
- TGI [15]: > 100 µM
- TGI [16]: > 100 µM
- TGI [17]: > 100 µM
- TGI [18]: > 100 µM
- TGI [19]: > 100 µM
- TGI [20]: > 100 µM
- TGI [21]: > 100 µM
- TGI [22]: > 100 µM
- TGI [23]: > 100 µM
- TGI [24]: > 100 µM
- TGI [25]: > 100 µM
- TGI [26]: > 100 µM
- TGI [55]: > 100 µM
- TGI [27]: > 100 µM
- TGI [28]: > 100 µM
- TGI [56]: 76.1 µM
- TGI [29]: > 100 µM
- TGI [30]: > 100 µM
- TGI [31]: > 100 µM
- TGI [32]: > 100 µM
- TGI [33]: > 100 µM
- TGI [34]: > 100 µM
- TGI [35]: 62.9 µM
- TGI [36]: > 100 µM
- TGI [37]: > 100 µM
- TGI [38]: > 100 µM
- TGI [39]: > 100 µM
- TGI [40]: > 100 µM
- TGI [58]: > 100 µM
- TGI [41]: > 100 µM
- TGI [42]: > 100 µM
- TGI [43]: > 100 µM
- TGI [57]: > 100 µM
- TGI [44]: > 100 µM
- TGI [45]: > 100 µM
- TGI [46]: 87 µM
